Assay results reported in publication PMC2735267 (Neuropharmacology, 2009).
Read-outs that look alike come from different tables or passages of the source.

Key:
α4β2* receptors = settings: read-out: Ki α4β2* receptors in rat brain; cited from earlier work
β2*-nAChR [1] = settings: ref Luetje and Patrick, 1991; cited from earlier work
human α4β2 = settings: read-out: Ki human α4β2; cited from earlier work
human α7 = settings: read-out: Ki human α7; cited from earlier work
β4*-nAChR [2] = settings: ref Luetje and Patrick, 1991; cited from earlier work
α7* receptors = settings: read-out: Ki α7* receptors in rat brain; cited from earlier work
α4β2-nAChR = settings: cited from earlier work
[3] = system: [3H]noradrenaline release; settings: read-out: EC50 [3H]noradrenaline release; cited from earlier work
α7-nAChR = α7-nAChR (Mus musculus, UniProt P49582); assay: biochemical; format: binding, C57BL/6J mice
[3H]dopamine release = read-out: EC50 [3H]dopamine release; cited from earlier work
β4*-nAChR [4] = target: β4*-nAChR (Mus musculus, UniProt Q8R493+Q8R4G9); assay: biochemical; format: binding, C57BL/6J mice
[5] = system: [125I]epibatidine binding sites (β2*- and β4*-nAChR); parameters: species or system C57BL/6J mice; settings: inferior colliculus, wild-type
human α7 nAChR = settings: read-out: EC50 human α7 nAChR; cited from earlier work
β2*-nAChR [6] = target: β2*-nAChR (Mus musculus, UniProt O70174+Q9ERK7); assay: biochemical; format: binding, C57BL/6J mice
[7] = rats; ref Sloan et al., 1988; cited from earlier work
human α3β4-nAChR = settings: Xenopus oocytes; ref Abin-Carriquiry et al., 2006; cited from earlier work
DBA/2J mice = assay: 3-IC-induced hypothermia; format: in vivo, mouse
C57BL/6J mice = assay: 3-IC-induced hypothermia; format: in vivo, mouse
α7* nAChR binding sites = settings: ten days 2 mg/kg/h nicotine, DBA/2J, ref Pauly et al., 1991, cited from earlier work

Chain of α7-nAChR (P49582 23-502): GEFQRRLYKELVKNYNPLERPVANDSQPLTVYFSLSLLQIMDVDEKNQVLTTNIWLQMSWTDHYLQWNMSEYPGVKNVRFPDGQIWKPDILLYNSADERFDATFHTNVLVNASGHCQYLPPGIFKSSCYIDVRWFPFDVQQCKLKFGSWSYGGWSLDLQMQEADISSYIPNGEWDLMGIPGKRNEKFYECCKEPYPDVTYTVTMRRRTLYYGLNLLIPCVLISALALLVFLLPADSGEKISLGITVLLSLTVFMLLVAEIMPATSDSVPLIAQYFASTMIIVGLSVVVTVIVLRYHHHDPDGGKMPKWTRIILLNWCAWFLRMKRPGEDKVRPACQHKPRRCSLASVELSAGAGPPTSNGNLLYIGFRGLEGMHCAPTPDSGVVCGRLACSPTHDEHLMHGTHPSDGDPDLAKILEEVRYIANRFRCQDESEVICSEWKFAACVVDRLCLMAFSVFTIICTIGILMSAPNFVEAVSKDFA
Chain of β2*-nAChR (Mus musculus, UniProt O70174+Q9ERK7) (O70174 31-629): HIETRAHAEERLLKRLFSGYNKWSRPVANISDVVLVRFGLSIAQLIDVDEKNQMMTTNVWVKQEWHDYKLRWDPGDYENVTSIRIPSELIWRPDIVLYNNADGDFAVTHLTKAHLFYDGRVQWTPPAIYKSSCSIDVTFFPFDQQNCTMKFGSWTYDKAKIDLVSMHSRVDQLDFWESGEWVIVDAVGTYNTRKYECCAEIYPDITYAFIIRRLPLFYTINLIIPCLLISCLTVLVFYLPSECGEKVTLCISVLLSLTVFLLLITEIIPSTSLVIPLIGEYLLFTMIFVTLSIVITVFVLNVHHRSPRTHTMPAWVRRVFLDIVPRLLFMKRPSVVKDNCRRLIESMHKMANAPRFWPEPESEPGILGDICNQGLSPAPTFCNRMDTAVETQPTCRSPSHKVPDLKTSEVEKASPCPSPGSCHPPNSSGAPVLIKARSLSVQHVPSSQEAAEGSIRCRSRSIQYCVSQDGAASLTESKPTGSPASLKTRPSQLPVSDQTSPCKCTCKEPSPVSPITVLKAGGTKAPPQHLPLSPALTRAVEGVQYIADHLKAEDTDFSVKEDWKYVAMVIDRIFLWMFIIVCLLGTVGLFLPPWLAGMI
Chain of β2*-nAChR (Mus musculus, UniProt O70174+Q9ERK7) (Q9ERK7 26-501): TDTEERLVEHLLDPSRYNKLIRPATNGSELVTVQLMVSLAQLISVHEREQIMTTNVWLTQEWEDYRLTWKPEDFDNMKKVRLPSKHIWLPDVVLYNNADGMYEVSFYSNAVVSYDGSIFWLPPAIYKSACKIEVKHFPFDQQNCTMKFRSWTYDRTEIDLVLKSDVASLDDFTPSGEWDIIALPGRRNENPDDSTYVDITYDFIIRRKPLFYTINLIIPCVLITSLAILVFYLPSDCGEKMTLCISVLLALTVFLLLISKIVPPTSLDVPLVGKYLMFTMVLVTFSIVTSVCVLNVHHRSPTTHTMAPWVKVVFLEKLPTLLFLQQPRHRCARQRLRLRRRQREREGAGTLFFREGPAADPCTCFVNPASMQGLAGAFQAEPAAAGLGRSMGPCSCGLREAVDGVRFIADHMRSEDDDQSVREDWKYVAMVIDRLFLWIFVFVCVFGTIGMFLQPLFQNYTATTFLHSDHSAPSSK
Chain of β4*-nAChR (Mus musculus, UniProt Q8R493+Q8R4G9) (Q8R493 21-495): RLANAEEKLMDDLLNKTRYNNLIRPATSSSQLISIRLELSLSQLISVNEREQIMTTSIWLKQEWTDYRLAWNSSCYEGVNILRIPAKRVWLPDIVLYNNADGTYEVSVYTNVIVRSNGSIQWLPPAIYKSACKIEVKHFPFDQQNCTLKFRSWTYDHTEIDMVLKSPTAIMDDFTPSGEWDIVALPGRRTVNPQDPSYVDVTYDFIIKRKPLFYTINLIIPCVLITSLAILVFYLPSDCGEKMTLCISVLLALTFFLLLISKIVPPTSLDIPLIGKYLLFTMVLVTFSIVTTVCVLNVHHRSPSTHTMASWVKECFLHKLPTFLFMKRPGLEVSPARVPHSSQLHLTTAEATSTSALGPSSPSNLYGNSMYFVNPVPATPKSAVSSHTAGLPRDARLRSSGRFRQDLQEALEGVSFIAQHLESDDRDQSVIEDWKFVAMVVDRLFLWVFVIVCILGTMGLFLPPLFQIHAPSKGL
Chain of β4*-nAChR (Mus musculus, UniProt Q8R493+Q8R4G9) (Q8R4G9 26-499): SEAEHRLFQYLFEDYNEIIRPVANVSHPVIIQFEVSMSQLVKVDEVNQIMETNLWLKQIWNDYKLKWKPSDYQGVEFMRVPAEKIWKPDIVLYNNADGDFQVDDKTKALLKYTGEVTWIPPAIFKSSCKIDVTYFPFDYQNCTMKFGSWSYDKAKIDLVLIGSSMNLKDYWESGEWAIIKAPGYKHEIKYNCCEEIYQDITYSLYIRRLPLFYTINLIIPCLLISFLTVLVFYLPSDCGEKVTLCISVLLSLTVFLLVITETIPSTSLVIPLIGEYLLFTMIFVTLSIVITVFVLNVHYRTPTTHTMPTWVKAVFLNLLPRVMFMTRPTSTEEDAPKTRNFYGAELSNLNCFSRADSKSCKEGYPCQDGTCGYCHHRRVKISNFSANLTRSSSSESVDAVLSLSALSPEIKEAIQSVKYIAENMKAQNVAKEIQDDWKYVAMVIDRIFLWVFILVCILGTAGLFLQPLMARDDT

SMILES: O=c1cccc2n1C[C@@H]1CNC[C@H]2C1 [cytisine, reference compound]
- Ki (α4β2* receptors): 1.2 nM
- agonist efficacy at β2*-nAChR (β2*-nAChR [1]): partial agonist
- Ki (human α4β2): 0.6 nM
- Ki (human α7): 30000 nM
- agonist efficacy at β4*-nAChR (β4*-nAChR [2]): full agonist
- Ki (α7* receptors): 8000 nM
- EC50 (α4β2-nAChR; read-out: EC50 high agonist sensitive form of α4β2-nAChR): 5 nM
- EC50 (α4β2-nAChR; read-out: EC50 low agonist sensitive form of α4β2-nAChR): 2000 nM
- EC50 [3]: 7400 nM
- Ki (α7-nAChR): 1580 ± 180 nM
- EC50 ([3H]dopamine release): 280 nM
- Ki (β4*-nAChR [4]): 9.7 ± 1.5 nM
- difference in affinity for the two [125I]epibatidine binding sites [5]: 60 fold
- EC50 (human α7 nAChR): 83000 nM
- Ki (β2*-nAChR [6]): 0.35 ± 0.01 nM
- half-life [7]: longer half-life than nicotine

SMILES: O=c1c(Br)ccc2n1C[C@@H]1CNC[C@H]2C1 [3-bromocytisine]
- agonist efficacy at human α3β4-nAChR (human α3β4-nAChR): full agonist

SMILES: CNC1(C)C2CCC(C2)C1(C)C (stereo not drawn) [mecamylamine, reference compound]
- effect of mecamylamine alone on body temperature (DBA/2J mice; 1 mg/kg ip, both mice strains): did not affect body temperature
- time of maximal hypothermia after 3-IC injection, mecamylamine pretreated (DBA/2J mice; mecamylamine 1 mg/kg + 3-IC 0.2 mg/kg, DBA/2J): 20 min
- 3-IC-induced hypothermia after mecamylamine pretreatment (DBA/2J mice; mecamylamine 1 mg/kg ip 10 min before 3-IC 0.2 mg/kg, DBA/2J): 1.13 ± 0.42 °C
- blockade of 3-IC-induced hypothermia (C57BL/6J mice; mecamylamine 1 mg/kg before 3-IC 0.2 mg/kg): complete
- 3-IC-induced hypothermia after mecamylamine pretreatment (C57BL/6J mice; mecamylamine 1 mg/kg ip 10 min before 3-IC 0.2 mg/kg): 0.13 ± 0.09 °C

SMILES: C[N+](C)(C)CCCCCC[N+](C)(C)C [hexamethonium, reference compound]
- effect of hexamethonium alone on body temperature (DBA/2J mice; 10 mg/kg ip, DBA/2J, vs saline): modest, but statistically significant, hypothermia
- maximal 3-IC-induced hypothermia after hexamethonium pretreatment (DBA/2J mice; hexamethonium 10 mg/kg 10 min before 3-IC 0.2 mg/kg, DBA/2J): 5.66 ± 0.45 °C
- blockade of 3-IC-induced hypothermia (DBA/2J mice; hexamethonium 10 mg/kg, DBA/2J): 33%
- effect of hexamethonium alone on body temperature (C57BL/6J mice; 10 mg/kg ip, vs saline): did not affect body temperature
- blockade of 3-IC-induced hypothermia (C57BL/6J mice; hexamethonium 10 mg/kg): 60%
- maximal 3-IC-induced hypothermia after hexamethonium pretreatment (C57BL/6J mice; hexamethonium 10 mg/kg 10 min before 3-IC 0.2 mg/kg): 3.75 ± 0.67 °C

SMILES: CN1CCC[C@H]1c1cccnc1 [nicotine]
- increase in [125I]α-bungarotoxin binding sites (α7* nAChR binding sites; caudate putamen): 14.2%
- increase in [125I]α-bungarotoxin binding sites (α7* nAChR binding sites; dentate gyrus): 12.6%
- increase in [125I]α-bungarotoxin binding sites (α7* nAChR binding sites; hippocampus): 33%
- increase in [125I]α-bungarotoxin binding sites (α7* nAChR binding sites; medial habenula): 22.6%
- increase in [125I]α-bungarotoxin binding sites (α7* nAChR binding sites; substantia nigra): 25.6%
- increase in [125I]α-bungarotoxin binding sites (α7* nAChR binding sites; zona incerta): 17.6%
- Ki (α7-nAChR): 930 ± 100 nM
- difference in affinity for the two [125I]epibatidine binding sites [5]: 20 fold
